Data on 30 molecules can be found in patent US8389557B2, “Triazole derivatives useful as Axl inhibitors” (Rigel Pharmaceuticals, Inc., priority 2005, dated 2013).

Some results are limits rather than exact numbers.

The first assay addresses T1, Axl (Homo sapiens, UniProt P30530).
T1 construct: endogenous in cells; host or cells: HeLa cells
T1 sequence (P30530 26-894): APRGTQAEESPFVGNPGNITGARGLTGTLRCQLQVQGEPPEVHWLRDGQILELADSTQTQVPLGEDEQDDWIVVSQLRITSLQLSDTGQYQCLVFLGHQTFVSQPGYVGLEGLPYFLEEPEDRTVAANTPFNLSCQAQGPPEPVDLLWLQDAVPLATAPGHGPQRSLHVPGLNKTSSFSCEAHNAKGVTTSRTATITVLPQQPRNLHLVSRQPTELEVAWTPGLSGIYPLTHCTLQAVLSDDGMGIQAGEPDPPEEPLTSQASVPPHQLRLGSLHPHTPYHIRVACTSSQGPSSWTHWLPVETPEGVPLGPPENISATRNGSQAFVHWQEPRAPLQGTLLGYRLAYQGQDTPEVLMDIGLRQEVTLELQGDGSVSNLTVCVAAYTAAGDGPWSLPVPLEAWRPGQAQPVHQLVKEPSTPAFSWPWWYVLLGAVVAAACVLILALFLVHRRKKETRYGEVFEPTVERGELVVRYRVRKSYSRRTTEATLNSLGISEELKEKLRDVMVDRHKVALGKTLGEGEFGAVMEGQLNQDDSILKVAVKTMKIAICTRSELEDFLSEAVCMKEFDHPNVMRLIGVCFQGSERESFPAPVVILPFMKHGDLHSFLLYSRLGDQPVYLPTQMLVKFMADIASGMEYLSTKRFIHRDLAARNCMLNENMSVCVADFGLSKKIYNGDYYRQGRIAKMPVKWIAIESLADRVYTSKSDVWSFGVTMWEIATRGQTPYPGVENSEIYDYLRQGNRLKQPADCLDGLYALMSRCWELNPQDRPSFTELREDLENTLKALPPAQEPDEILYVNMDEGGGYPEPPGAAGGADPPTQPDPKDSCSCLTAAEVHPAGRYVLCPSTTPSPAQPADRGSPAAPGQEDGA
The experiment in a line: Phospho-Akt in-cell Western assay (inhibition of Axl activity). It is filed as cell-based. The following applies: Table 2; Hela cells, Axl antibody cross-linking stimulation, phospho-Akt chemiluminescence. The method, boiled down:
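HeLa cells on poly-L-lysine, starved 24 h in 0.5% FCS DMEM with Axl/Fc 500 ng/mL, pre-treated with compound 1 h at 37° C. Axl stimulated 5 min by anti-Axl/anti-mouse antibody cross-linking. Fixed cells probed with anti-phospho-Akt and HRP secondary, chemiluminescence read.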
With `CC(C)(C)Oc1ccc(C(=O)n2nc(N)nc2Nc2ccc(N3CCCC3)cc2)cc1` [compound 292, 3-amino-1-(4-(tert-butoxy)phenyl)carbonyl-5-(4-(pyrrolidin-1-yl)phenylamino]-1H-1,2,4-triazole], the half-inhibitory concentration (IC50) was over 20 µM.
As for `CC(C)Oc1ccc(C(=O)n2nc(N)nc2Nc2ccc(N3CCCC3)cc2)cc1` [compound 294, 3-amino-1-(4-(iso-propoxy)phenyl)carbonyl-5-(4-(pyrrolidin-1-yl)phenylamino]-1H-1,2,4-triazole], the IC50 was over 20 µM.
Regarding `CC(C)(C)c1ccc(C(=O)n2nc(N)nc2Nc2ccc(N3CCCC3)cc2)cc1` [compound 298, 3-amino-1-(4-(tert-butyl)phenyl)carbonyl-5-[4-(pyrrolidin-1-yl)phenylamino]-1H-1,2,4-triazole], the IC50 was over 20 µM.
The same measure, in the same setting: then `Cc1ccc(C(=O)n2nc(N)nc2Nc2ccc(N3CCCC3)cc2)cc1` [compound 301, 3-amino-1-(4-methylphenyl)carbonyl-5-(4-(pyrrolidin-1-yl)phenylamino]-1H-1,2,4-triazole], with over 20 µM.

Still in this assay, the particulars now being: Table 3; Hela cells, Axl antibody cross-linking stimulation, phospho-Akt chemiluminescence.
In turn, `Nc1nc(Nc2ccc(OCCN3CCCC3)cc2)nn1C(=O)c1ccc2nn[nH]c2c1` [compound 281, 5-amino-1-(1H-benzo[d][1,2,3]triazol-5-yl)carbonyl-3-[4-[2-(pyrrolidin-1-yl)ethoxy]phenylamino]-1H-1,2,4-triazole] displayed an IC50 of 10 to 20 µM.
Still for that read-out and setting: in the case of `Cc1ccsc1C(=O)n1nc(Nc2ccc(OCCN3CCCC3)cc2)nc1N` [compound 283, 5-amino-1-(3-methylthien-2-yl)carbonyl-3-[4-[2-(pyrrolidin-1-yl)ethoxy]phenylamino]-1H-1,2,4-triazole] it was under 1 µM.
`Cc1ccc(C(=O)n2nc(Nc3ccc(OCCN4CCCC4)cc3)nc2N)s1` [compound 284, 5-amino-1-(5-methylthien-2-yl)carbonyl-3-[4-[2-(pyrrolidin-1-yl)ethoxy]phenylamino]-1H-1,2,4-triazole] displayed an IC50 of under 1 µM.
On the same count and under the same terms, then `Nc1nc(Nc2ccc(OCCN3CCCC3)cc2)nn1C(=O)c1cccs1` [compound 285, 5-amino-1-(thien-2-yl)carbonyl-3-[4-[2-(pyrrolidin-1-yl)ethoxy]phenylamino]-1H-1,2,4-triazole], with under 1 µM; and `Nc1nc(Nc2ccc(OCCN3CCCC3)cc2)nn1C(=O)c1ccc2ncccc2c1` [compound 288, 5-amino-1-(quinolin-6-yl)carbonyl-3-[4-[2-(pyrrolidin-1-yl)ethoxy]phenylamino]-1H-1,2,4-triazole], with under 1 µM.
Same read-out and setting: in the case of `CC1(C)Oc2ccc(C(=O)n3nc(Nc4ccc(N5CCCC5)cc4)nc3N)cc2NC1=O` [compound 295, 5-amino-1-(2,2-dimethyl-2H-benzo[b][1,4]oxazin-3(4H)-on-6-yl)carbonyl-3-[4-(pyrrolidin-1-yl)phenylamino]-1H-1,2,4-triazole] it was 1 to 10 µM.

The same assay, now with this note: Table 4; Hela cells, Axl antibody cross-linking stimulation, phospho-Akt chemiluminescence.
In turn, `CC1(C)Oc2ccc(C(=O)n3nc(N)nc3Nc3ccc(N4CCCC4)cc3)cc2NC1=O` [compound 296, 3-amino-1-(2,2-dimethyl-2H-benzo[b][1,4]oxazin-3(4H)-on-6-yl)carbonyl-5-[4-(pyrrolidin-1-yl)phenylamino]-1H-1,2,4-triazole] displayed an IC50 of 10 to 20 µM.

The assay is the same for the next values; noted with them: Table 5; Hela cells, Axl antibody cross-linking stimulation, phospho-Akt chemiluminescence.
On to `CC(C)(C)OC(=O)NC1CCOc2ccc(Nc3nc(N)n(C(=O)c4ccc(C(C)(C)C)cc4)n3)cc21` (stereo not drawn) [compound 273], for which the IC50 was over 20 µM.
The same measure, in the same setting: then `CC(C)Oc1ccc(C(=O)n2nc(Nc3ccc4c(c3)C(NC(=O)OC(C)(C)C)CCO4)nc2N)cc1` (stereo not drawn) [compound 274], with over 20 µM; and `CC(C)(C)OC(=O)NC1CCOc2ccc(Nc3nc(N)n(C(=O)c4ccc(OC(C)(C)C)cc4)n3)cc21` (stereo not drawn) [compound 275], with over 20 µM.

Still in this assay, the particulars now being: Table 9; Hela cells, Axl antibody cross-linking stimulation, phospho-Akt chemiluminescence.
Take `CC(C)(C)OC(=O)NC1CCOc2ccc(Nc3nc(N)n(C(=O)c4ccc5cc[nH]c5c4)n3)cc21` (stereo not drawn) [compound 276]: the concentration for half-maximal inhibition (IC50) fell in the range of 1 to 10 µM.

The same assay, now with this note: inhibition of Axl activity, phospho-Akt in-cell Western assay; Table 1.
In the case of `CN(c1ccc(OCCN2CCCC2)cc1)c1nc(N)n(C(=O)c2ccc(OC(C)(C)C)cc2)n1` [compound 272, 5-amino-1-(4-(tert-butoxy)phenyl)carbonyl-3-[4-[2-(pyrrolidin-1-yl)ethoxy]phenyl][methyl]amino-1H-1,2,4-triazole], the IC50 was over 20 µM.
In the case of `Nc1nc(Nc2ccc(OCCN3CCCC3)cc2)nn1C(=O)c1ccc(-c2ccccc2)cc1` [compound 277, 5-amino-1-(4-(phenyl)phenyl)carbonyl-3-[4-[2-(pyrrolidin-1-yl)ethoxy]phenylamino]-1H-1,2,4-triazole], the IC50 is under 1 µM.
Take `CC(C)(C)OC(=O)NCc1ccc(C(=O)n2nc(Nc3ccc(OCCN4CCCC4)cc3)nc2N)cc1` [compound 278, 5-amino-1-[4-((tert-butoxycarbonyl)aminomethyl)phenyl]carbonyl-3-[4-[2-(pyrrolidin-1-yl)ethoxy]phenylamino]-1H-1,2,4-triazole]: the IC50 is under 1 µM.
Still for that read-out and setting: then `Nc1nc(Nc2ccc(OCCN3CCCC3)cc2)nn1C(=O)c1ccc(-c2csnn2)cc1` [compound 280, 5-amino-1-(4-(1,2,3-thiadiazol-4-yl)phenyl)carbonyl-3-[4-[2-(pyrrolidin-1-yl)ethoxy]phenylamino]-1H-1,2,4-triazole], with under 1 µM.
Still for that read-out and setting: then `Nc1nc(Nc2ccc(OCCN3CCCC3)cc2)nn1C(=O)c1ccc(-n2cccc2)cc1` [compound 282, 5-amino-1-(4-(pyrrol-1-yl)phenyl)carbonyl-3-[4-[2-(pyrrolidin-1-yl)ethoxy]phenylamino]-1H-1,2,4-triazole], with under 1 µM; and `CNc1ccc(C(=O)n2nc(Nc3ccc(OCCN4CCCC4)cc3)nc2N)cc1` [compound 286, 5-amino-1-(4-(methylamino)phenyl)carbonyl-3-[4-[2-(pyrrolidin-1-yl)ethoxy]phenylamino]-1H-1,2,4-triazole], with under 1 µM.
Still for that read-out and setting: in the case of `CSc1ccc(C(=O)n2nc(Nc3ccc(OCCN4CCCC4)cc3)nc2N)cc1` [compound 287, 5-amino-1-(4-(methylthio)phenyl)carbonyl-3-[4-[2-(pyrrolidin-1-yl)ethoxy]phenylamino]-1H-1,2,4-triazole] it was under 1 µM; in that of `Nc1nc(Nc2ccc(OCCN3CCCC3)cc2)nn1C(=O)c1c(F)cccc1F` [compound 289, 5-amino-1-(2,6-difluorophenyl)carbonyl-3-[4-[2-(pyrrolidin-1-yl)ethoxy]phenylamino]-1H-1,2,4-triazole], over 20 µM; in that of `CC(C)(C)C(=O)Nc1ccc(C(=O)n2nc(Nc3ccc(OCCN4CCCC4)cc3)nc2N)cc1` [compound 290, 5-amino-1-(4-(tert-butylcarbonylamino)phenyl)carbonyl-3-[4-[2-(pyrrolidin-1-yl)ethoxy]phenylamino]-1H-1,2,4-triazole], 10 to 20 µM.
`CC(C)(C)Oc1ccc(C(=O)n2nc(Nc3ccc(N4CCCC4)cc3)nc2N)cc1` [compound 291, 5-amino-1-(4-(tert-butoxy)phenyl)carbonyl-3-[4-(pyrrolidin-1-yl)phenylamino]-1H-1,2,4-triazole] gave an IC50 of over 20 µM.
Same read-out and setting: then `CC(C)Oc1ccc(C(=O)n2nc(Nc3ccc(N4CCCC4)cc3)nc2N)cc1` [compound 293, 5-amino-1-(4-(iso-propoxy)phenyl)carbonyl-3-[4-(pyrrolidin-1-yl)phenylamino]-1H-1,2,4-triazole], with 1 to 10 µM; and `CC(C)(C)c1ccc(C(=O)n2nc(Nc3ccc(N4CCCC4)cc3)nc2N)cc1` [compound 297, 5-amino-1-(4-(tert-butyl)phenyl)carbonyl-3-[4-(pyrrolidin-1-yl)phenylamino]-1H-1,2,4-triazole], with over 20 µM.
The same measure, in the same setting: then `CN(C)c1ccc(C(=O)n2nc(Nc3ccc(N4CCCC4)cc3)nc2N)cc1` [compound 299, 5-amino-1-(4-(dimethylamino)phenyl)carbonyl-3-[4-(pyrrolidin-1-yl)phenylamino]-1H-1,2,4-triazole], with 1 to 10 µM; and `Cc1ccc(C(=O)n2nc(Nc3ccc(N4CCCC4)cc3)nc2N)cc1` [compound 300, 5-amino-1-(4-(methyl)phenyl)carbonyl-3-[4-(pyrrolidin-1-yl)phenylamino]-1H-1,2,4-triazole], with 1 to 10 µM.
On the same count and under the same terms, then `CC(C)(C)c1ccc(C(=O)n2nc(Nc3ccc(OCCN4CCCC4)cc3)nc2N)cc1` [compound 302, 5-amino-1-(4-(tert-butyl)phenyl)carbonyl-3-[4-[2-(pyrrolidin-1-yl)ethoxy]phenylamino]-1H-1,2,4-triazole], with under 1 µM.
